The numbers were not newly measured in patent US6974665B2, “In situ screening to optimize variables in organic reactions” (University of Nebraska, priority 2001, dated 2005), which cites them from elsewhere.

By kinact is commonly meant the maximal first-order rate at which the target is inactivated.

Series [1] addresses T1, cystathionine γ-synthase (Nicotiana tabacum, UniProt Q9ZPL5).
T1 sequence (Q9ZPL5 79-540): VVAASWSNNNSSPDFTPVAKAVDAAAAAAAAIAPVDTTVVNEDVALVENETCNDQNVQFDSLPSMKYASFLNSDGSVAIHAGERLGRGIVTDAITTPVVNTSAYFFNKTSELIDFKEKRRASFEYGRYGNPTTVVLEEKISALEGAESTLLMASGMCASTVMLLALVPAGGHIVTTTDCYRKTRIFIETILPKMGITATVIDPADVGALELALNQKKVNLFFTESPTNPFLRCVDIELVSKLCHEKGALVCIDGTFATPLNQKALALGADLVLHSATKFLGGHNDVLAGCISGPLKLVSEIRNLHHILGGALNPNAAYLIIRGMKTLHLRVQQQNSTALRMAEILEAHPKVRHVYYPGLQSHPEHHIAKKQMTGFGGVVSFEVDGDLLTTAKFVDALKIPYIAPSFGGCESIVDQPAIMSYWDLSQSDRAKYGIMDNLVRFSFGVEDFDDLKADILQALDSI
The settings on record: tight-binding reversible inhibitor.

Series [2] addresses T2, threonine synthase (Escherichia coli, UniProt P00934).
T2 sequence (P00934 1-428): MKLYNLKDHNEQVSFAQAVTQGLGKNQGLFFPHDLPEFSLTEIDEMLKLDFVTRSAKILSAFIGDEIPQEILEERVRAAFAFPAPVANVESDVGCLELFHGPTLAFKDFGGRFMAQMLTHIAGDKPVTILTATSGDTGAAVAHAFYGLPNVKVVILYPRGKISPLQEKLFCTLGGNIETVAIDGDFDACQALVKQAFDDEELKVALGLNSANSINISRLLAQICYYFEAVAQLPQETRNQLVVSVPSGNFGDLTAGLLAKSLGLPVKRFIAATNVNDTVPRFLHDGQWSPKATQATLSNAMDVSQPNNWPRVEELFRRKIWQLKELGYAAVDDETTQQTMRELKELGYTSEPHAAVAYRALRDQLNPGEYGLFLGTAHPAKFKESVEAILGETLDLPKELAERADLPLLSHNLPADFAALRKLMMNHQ
As to conditions: irreversible inhibitor.

With `NC(/C=C/CP(=O)(O)O)C(=O)O` (stereo not drawn) [APPA, (E)-2-Amino-5-phosphono-3-pentenoic Acid], in series [1], the Ki is 27 µM. In series [2], the Ki was 400 µM and the inactivation rate constant (kinact) was 0.25 min⁻¹.
